According to patent US4081441A, “Antibacterial agents” (priority 1977, dated 1978):
Converted amounts (≈) assume the structure as drawn. Read-outs that look alike come from different tables or passages of the source.

Key:
Pseudomonas aeruginosa [1] = assay: Minimum Inhibitory Concentration, agar dilution, overnight incubation at 37° C.; type: cell-based; conditions: for MIC: Pseudomonas aeruginosa
Excerpt: A carbenicillin sample was also run for comparative purposes.

Pseudomonas aeruginosa [2] = assay: Minimum Bactericidal Concentration, inoculum 10^4 cells/ml., at least 99% kill; type: cell-based
Method: The bactericidal in vitro activity of sodium D(-)-6-(α-(1,2,4-triazine-3,5-dione-6-carboxamido)-4-hydroxyphenylacetamido)penicillanate (BL-P1908) against several strains of Pseudomonas aeruginosa was determined under two sets of conditions. In one test the Minimum Bactericidal Concentrations (M.B.C.) were determined using an inoculum size of 10^4 cells/ml. and the M.B.C. was defined as the lowest concentration of antibiotic in mcg./ml. needed to kill at least 99% of the viable Pseudomonas cells.

Pseudomonas aeruginosa [3] = assay: Minimum Bactericidal Concentration, inoculum 10^5 cells/ml., at least 99.9% kill; type: cell-based
Excerpt: The effect of increased inoculum size on the bactericidal activity of BL-P1908 was investigated by a second test in which an inoculum size of 10^5 cells/ml. was used and the M.B.C. was defined as the lowest concentration of antibiotics in mcg./ml. needed to kill at least 99.9% of viable Pseudomonas cells.

[4] = Mouse blood (plasma) antibiotic levels after single intramuscular dose; type: in vivo; conditions: im, 40 mg/kg, mice, 40 mg./kg. i.m., Test 1 (Ave. of 6 mice tested), read-out: Blood Level
Method: Plasma antibiotic levels from mice administered a single intramuscular dose of 40 mg./kg. of BL-[…] or carbenicillin are shown in the following table.

Bacteroides fragilis = assay: M.I.C. against anaerobic bacteria, Bacteroides fragilis; type: cell-based
Cl. acidiurici = assay: M.I.C. against anaerobic bacteria, Cl. acidiurici; type: cell-based; conditions: strain A9560
Cl. cylindrosporum = assay: M.I.C. against anaerobic bacteria, Cl. cylindrosporum; type: cell-based; conditions: strain A9562
Cl. difficile = assay: M.I.C. against anaerobic bacteria, Cl. difficile; type: cell-based; conditions: Clostridioides difficile
Cl. septicum = assay: M.I.C. against anaerobic bacteria, Cl. septicum; type: cell-based; conditions: Clostridium septicum; strain A21869
Cl. perfringens = assay: microbe, parasite or virus in culture; type: cell-based; conditions: Clostridium perfringens
Cl. ramosum = assay: M.I.C. against anaerobic bacteria, Cl. ramosum; type: cell-based; conditions: Thomasclavelia ramosa
[5] = mice, 40 mg./kg. i.m., Literature values, cited from earlier work
Pseudomonas aeruginosa [6] = assay: animal or person; conditions: in Mus musculus, im

CC1(C)S[C@@H]2[C@H](NC(=O)C(C(=O)O)c3ccccc3)C(=O)N2[C@H]1C(=O)O (some centres unmarked) [Carbenicillin, reference compound]
M.I.C. (Pseudomonas aeruginosa [1]): 32 µg/mL
MIC (Pseudomonas aeruginosa [1]; strain A9502): 63 µg/mL (≈ 166 µM)
MIC (Pseudomonas aeruginosa [1]; strain A9827): 32 µg/mL (≈ 84.6 µM)
MIC (Pseudomonas aeruginosa [1]; strain A9910): 32 µg/mL (≈ 84.6 µM)
MIC (Pseudomonas aeruginosa [1]; strain A9923): 63 µg/mL (≈ 166 µM)
MIC (Pseudomonas aeruginosa [1]; strain A9924): 63 µg/mL (≈ 166 µM)
MIC (Pseudomonas aeruginosa [1]; strain A9925): 32 µg/mL (≈ 84.6 µM)
MIC (Pseudomonas aeruginosa [1]; strain A9926): 63 µg/mL (≈ 166 µM)
MIC (Pseudomonas aeruginosa [1]; strain A9930): 63 µg/mL (≈ 166 µM)
MIC (Pseudomonas aeruginosa [1]; strain A9931): 63 µg/mL (≈ 166 µM)
MIC (Pseudomonas aeruginosa [1]; strain A15150): 32 µg/mL (≈ 84.6 µM)
MIC (Pseudomonas aeruginosa [1]; strain A15151): 32 µg/mL (≈ 84.6 µM)
MIC (Pseudomonas aeruginosa [1]; strain A15194): > 125 µg/mL
MIC (Pseudomonas aeruginosa [1]; strain A15195): 63 µg/mL (≈ 166 µM)
MIC (Pseudomonas aeruginosa [1]; strain A15196): 63 µg/mL (≈ 166 µM)
MIC (Pseudomonas aeruginosa [1]; strain A20125): 63 µg/mL (≈ 166 µM)
MIC (Pseudomonas aeruginosa [1]; strain A20126): 16 µg/mL (≈ 42.3 µM)
MIC (Pseudomonas aeruginosa [1]; strain A20127): 63 µg/mL (≈ 166 µM)
MIC (Pseudomonas aeruginosa [1]; strain A20128): 63 µg/mL (≈ 166 µM)
MIC (Pseudomonas aeruginosa [1]; strain A20129): 63 µg/mL (≈ 166 µM)
MIC (Pseudomonas aeruginosa [1]; strain A20130): 63 µg/mL (≈ 166 µM)
MIC (Pseudomonas aeruginosa [1]; strain A20228): 63 µg/mL (≈ 166 µM)
MIC (Pseudomonas aeruginosa [1]; strain A20546): 63 µg/mL (≈ 166 µM)
MIC (Pseudomonas aeruginosa [1]; strain A20557): > 125 µg/mL
MIC (Pseudomonas aeruginosa [1]; strain A20574): 32 µg/mL (≈ 84.6 µM)
MIC (Pseudomonas aeruginosa [1]; strain A20602): 63 µg/mL (≈ 166 µM)
MIC (Pseudomonas aeruginosa [1]; strain A20616): 63 µg/mL (≈ 166 µM)
MIC (Pseudomonas aeruginosa [1]; strain A20641): 63 µg/mL (≈ 166 µM)
MIC (Pseudomonas aeruginosa [1]; strain A20717): > 125 µg/mL
MIC (Pseudomonas aeruginosa [1]; strain A20726): 63 µg/mL (≈ 166 µM)
MIC (Pseudomonas aeruginosa [1]; strain A21336): 63 µg/mL (≈ 166 µM)
MBC (Pseudomonas aeruginosa [2]; strain 9843A): 63 µg/mL (≈ 166 µM)
MBC (Pseudomonas aeruginosa [2]; strain 9910): 32 µg/mL (≈ 84.6 µM)
MBC (Pseudomonas aeruginosa [2]; strain 9926): 63 µg/mL (≈ 166 µM)
MBC (Pseudomonas aeruginosa [2]; strain 20126): 63 µg/mL (≈ 166 µM)
MBC (Pseudomonas aeruginosa [2]; strain 20128): 63 µg/mL (≈ 166 µM)
MBC (Pseudomonas aeruginosa [2]; strain 20227): 63 µg/mL (≈ 166 µM)
MBC (Pseudomonas aeruginosa [2]; strain 20228): 63 µg/mL (≈ 166 µM)
MBC (Pseudomonas aeruginosa [2]; strain 20546): 63 µg/mL (≈ 166 µM)
MBC (Pseudomonas aeruginosa [2]; strain 20557): 250 µg/mL (≈ 661 µM)
MBC (Pseudomonas aeruginosa [2]; strain 20574): 63 µg/mL (≈ 166 µM)
MBC (Pseudomonas aeruginosa [2]; strain 20616): 125 µg/mL (≈ 330 µM)
MBC (Pseudomonas aeruginosa [2]; strain 20641): 125 µg/mL (≈ 330 µM)
MBC (Pseudomonas aeruginosa [2]; strain 20717): 250 µg/mL (≈ 661 µM)
MBC (Pseudomonas aeruginosa [2]; strain 20726): 125 µg/mL (≈ 330 µM)
MBC (Pseudomonas aeruginosa [2]; strain 21336): 63 µg/mL (≈ 166 µM)
MBC (Pseudomonas aeruginosa [3]; strain 9843A): 125 µg/mL (≈ 330 µM)
MBC (Pseudomonas aeruginosa [3]; strain 9910): 125 µg/mL (≈ 330 µM)
MBC (Pseudomonas aeruginosa [3]; strain 9926): 125 µg/mL (≈ 330 µM)
MBC (Pseudomonas aeruginosa [3]; strain 20126): 63 µg/mL (≈ 166 µM)
MBC (Pseudomonas aeruginosa [3]; strain 20128): 125 µg/mL (≈ 330 µM)
MBC (Pseudomonas aeruginosa [3]; strain 20227): 125 µg/mL (≈ 330 µM)
MBC (Pseudomonas aeruginosa [3]; strain 20228): 63 µg/mL (≈ 166 µM)
MBC (Pseudomonas aeruginosa [3]; strain 20546): 250 µg/mL (≈ 661 µM)
MBC (Pseudomonas aeruginosa [3]; strain 20557): 250 µg/mL (≈ 661 µM)
MBC (Pseudomonas aeruginosa [3]; strain 20574): 125 µg/mL (≈ 330 µM)
MBC (Pseudomonas aeruginosa [3]; strain 20602): 250 µg/mL (≈ 661 µM)
MBC (Pseudomonas aeruginosa [3]; strain 20616): 250 µg/mL (≈ 661 µM)
MBC (Pseudomonas aeruginosa [3]; strain 20641): 125 µg/mL (≈ 330 µM)
MBC (Pseudomonas aeruginosa [3]; strain 20717): 1000 µg/mL (≈ 2640 µM)
MBC (Pseudomonas aeruginosa [3]; strain 20726): 250 µg/mL (≈ 661 µM)
MBC (Pseudomonas aeruginosa [3]; strain 21336): 125 µg/mL (≈ 330 µM)
concentration at 0.25 h ([4]; 15 min.): 19100 ng/mL
concentration at 0.5 h ([4]; 30 min.): 12500 ng/mL
concentration at 1 h ([4]; 60 min.): 4000 ng/mL
concentration at 1.5 h ([4]; 90 min.): < 1400 ng/mL
MIC (Bacteroides fragilis; strain A20920): 2 µg/mL (≈ 5.29 µM)
MIC (Bacteroides fragilis; strain A20926): 16 µg/mL (≈ 42.3 µM)
MIC (Bacteroides fragilis; strain A20927-1): 2 µg/mL (≈ 5.29 µM)
MIC (Bacteroides fragilis; strain A20930): 63 µg/mL (≈ 166 µM)
MIC (Bacteroides fragilis; strain A20933): 32 µg/mL (≈ 84.6 µM)
MIC (Bacteroides fragilis; strain A20934): 32 µg/mL (≈ 84.6 µM)
MIC (Bacteroides fragilis; strain A20935): 32 µg/mL (≈ 84.6 µM)
MIC (Bacteroides fragilis; strain A21870): 4 µg/mL (≈ 10.6 µM)
MIC (Bacteroides fragilis; strain A21871): 32 µg/mL (≈ 84.6 µM)
MIC (Bacteroides fragilis; strain A21872): 63 µg/mL (≈ 166 µM)
MIC (Bacteroides fragilis; strain A21875): 16 µg/mL (≈ 42.3 µM)
MIC (Bacteroides fragilis; strain A22053): 63 µg/mL (≈ 166 µM)
MIC (Bacteroides fragilis; strain A27020): > 125 µg/mL
MIC (Cl. acidiurici): 0.5 µg/mL (≈ 1.32 µM)
MIC (Cl. cylindrosporum): 0.5 µg/mL (≈ 1.32 µM)
MIC (Cl. difficile; strain A21675): 32 µg/mL (≈ 84.6 µM)
MIC (Cl. difficile; strain A21972): 32 µg/mL (≈ 84.6 µM)
MIC (Cl. septicum): 1 µg/mL (≈ 2.64 µM)
MIC (Cl. perfringens; strain A21873): 0.5 µg/mL (≈ 1.32 µM)
MIC (Cl. perfringens; strain A21874): 0.5 µg/mL (≈ 1.32 µM)
MIC (Cl. perfringens; strain A21907): 4 µg/mL (≈ 10.6 µM)
MIC (Cl. ramosum; strain A21883): 32 µg/mL (≈ 84.6 µM)
MIC (Cl. ramosum; strain A21970): 32 µg/mL (≈ 84.6 µM)
Blood Level ([5]; 15 min.): 18100 ng/mL
Blood Level ([5]; 30 min.): 8100 ng/mL
Blood Level ([5]; 60 min.): < 4600 ng/mL
Blood Level ([5]; 90 min.): < 4600 ng/mL
ED50 (Pseudomonas aeruginosa [6]; read-out: PD50 /treatment, P. aeruginosa A9843A, challenge 1 × 10^4, i.m., typical figures based on several tests): 100 mg/kg
ED50 (Pseudomonas aeruginosa [6]; read-out: PD50 /treatment, P. aeruginosa A9843A, challenge 2 × 10^4, i.m., typical figures based on several tests): 100 mg/kg
ED50 (Pseudomonas aeruginosa [6]; read-out: PD50 /treatment, P. aeruginosa A9843A, challenge 3 × 10^4, i.m., at 0 and 2 hours): 130 mg/kg
ED50 (Pseudomonas aeruginosa [6]; read-out: PD50 /treatment, P. aeruginosa A20599, challenge 3 × 10^4, i.m., at 0 and 2 hours): 100 mg/kg
ED50 (Pseudomonas aeruginosa [6]; read-out: PD50 /treatment, P. aeruginosa A20599, challenge 6 × 10^4, i.m., at 0 and 2 hours): 130 mg/kg
